Reference: the supplement of paper PMC11061612

Columns and labels:
Assay in all cases: combination Emax (second highest fraction inhibited in the dose matrix, 72 h); higher = more inhibition; extreme values may be limits of the assay
AGS (Gastric Carcinoma) = system: AGS (Gastric Carcinoma)
How it was run: (§1)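 Cell lines grown in DMEM/F12 or RPMI with 10% FBS were plated in 1536-well plates and held 24 hours at 37°C, 5% CO2 before 72 hours of exposure to two-drug dose matrices, with DMSO typically at 0.2%. CellTiter-Glo 2.0 luminescence gave viability, which was converted to inhibition. Vehicle wells were set to 0 and blank wells to 1. Combination Emax is the second-highest inhibition in the matrix, and Bliss excess is the observed combination effect minus the expected EA + EB − EA·EB, where EA and EB are the single-agent effects.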

[1] = system: B-CPAP (Thyroid Gland Carcinoma)
How it was run: as §1

[2] = system: CAL-148 (Breast Carcinoma)
How it was run: as §1

[3] = system: DEL (T-Cell Non-Hodgkin's Lymphoma)
How it was run: as §1

[4] = system: EC-GI-10 (Esophageal Squamous Cell Carcinoma)
How it was run: as §1

[5] = system: HO-1-N-1 (Oral Cavity Carcinoma)
How it was run: as §1

[6] = system: Hs-578-T (Breast Carcinoma)
How it was run: as §1

[7] = system: HuP-T4 (Pancreatic Carcinoma)
How it was run: as §1

KELLY (Neuroblastoma) = system: KELLY (Neuroblastoma)
How it was run: as §1

[8] = system: KURAMOCHI (Ovarian Carcinoma)
How it was run: as §1

[9] = system: LB831-BLC (Bladder Carcinoma)
How it was run: as §1

[10] = system: LNCaP-Clone-FGC (Prostate Carcinoma)
How it was run: as §1

[11] = system: LS-180 (Colorectal Carcinoma)
How it was run: as §1

[12] = system: MDA-MB-361 (Breast Carcinoma)
How it was run: as §1

[13] = system: MFE-296 (Endometrial Carcinoma)
How it was run: as §1

NOS-1 (Osteosarcoma) = system: NOS-1 (Osteosarcoma)
How it was run: as §1

[14] = system: OVCA420 (Ovarian Carcinoma)
How it was run: as §1

[15] = system: RO82-W-1 (Thyroid Gland Carcinoma)
How it was run: as §1

[16] = system: SNU-5 (Gastric Carcinoma)
How it was run: as §1

[17] = system: UM-UC-3 (Bladder Carcinoma)
How it was run: as §1

SMILES	combination Emax (AGS (Gastric Carcinoma))	combination Emax [1]	combination Emax [2]	combination Emax [3]	combination Emax [4]	combination Emax [5]	combination Emax [6]	combination Emax [7]	combination Emax (KELLY (Neuroblastoma))	combination Emax [8]	combination Emax [9]	combination Emax [10]	combination Emax [11]	combination Emax [12]	combination Emax [13]	combination Emax (NOS-1 (Osteosarcoma))	combination Emax [14]	combination Emax [15]	combination Emax [16]	combination Emax [17]
C[C@@H]1COCCN1c1cc(C2([S@](C)(=N)=O)CC2)nc(-c2ccnc3[nH]ccc23)n1 [AZD6738] + O=C(c1cc(Cc2n[nH]c(=O)c3ccccc23)ccc1F)N1CCN(C(=O)C2CC2)CC1 [Olaparib] (first compound max 10 µM, 7x7, partner max 10 µM)	0.604	0.498	0.935	0.993	0.747	0.839	0.898	0.331	0.897	0.549	0.373	0.73	0.733	0.836	0.391	0.326	0.364	0.353	0.909	0.584
Cc1cc2ncnn2cc1Nc1ncc2c(n1)n(C1CCOCC1)c(=O)n2C [AZD7648] + C=CCn1c(=O)c2cnc(Nc3ccc(N4CCN(C)CC4)cc3)nc2n1-c1cccc(C(C)(C)O)n1 [AZD1775] (first compound max 10 µM, partner max 1 µM)	0.736	0.479	0.928	1	0.78	0.532	0.77	0.288	0.993	0.664	0.455	0.775	0.5	0.824	0.295	0.432	0.418	0.46	0.558	0.287
Cc1cc2ncnn2cc1Nc1ncc2c(n1)n(C1CCOCC1)c(=O)n2C [AZD7648] + CCN(CCO)CCCOc1ccc2c(Nc3cc(CC(=O)Nc4cccc(F)c4)[nH]n3)ncnc2c1 [AZD2811] (first compound max 10 µM, 7x7, partner max 1 µM)	0.529	0.283	0.911	0.727	0.44	0.826	0.623	0.342	0.692	0.238	0.258	0.535	0.388	0.61	0.147	0.232	0.232	0.358	0.354	0.298
Cc1cc2ncnn2cc1Nc1ncc2c(n1)n(C1CCOCC1)c(=O)n2C [AZD7648] + CN(C)CCCOc1ccc(-c2ccc3ncc4c(c3c2)n(C2CCOCC2)c(=O)n4C)cn1 [AZD0156] (first compound max 10 µM, 7x7, partner max 1 µM)	0.397	0.286	0.424	0.412	0.161	0.3	0.513	0.261	0.878	0.192	0.243	0.546	0.358	0.565	0.147	0.225	0.262	0.394	0.376	0.236
Cc1cc2ncnn2cc1Nc1ncc2c(n1)n(C1CCOCC1)c(=O)n2C [AZD7648] + C[C@@H]1COCCN1C2=NC(=NC(=C2)C3(CC3)[S@](=N)(=O)C)C4=C5C=CNC5=NC=C4 [AZD6738] (first compound max 10 µM, 7x7, partner max 10 µM)	0.682	0.439	0.828	0.977	0.517	0.706	0.912	0.358	0.955	0.567	0.3	0.703	0.754	0.884	0.33	0.351	0.509	0.478	0.931	0.41
Cc1cc2ncnn2cc1Nc1ncc2c(n1)n(C1CCOCC1)c(=O)n2C [AZD7648] + O=C(c1cc(Cc2n[nH]c(=O)c3ccccc23)ccc1F)N1CCN(C(=O)C2CC2)CC1 [Olaparib] (first compound max 10 µM, 7x7, partner max 10 µM)	0.204	0.265	0.255	0.693	0.341	0.324	0.507	0.141	0.362	0.16	0.253	0.533	0.338	0.406	0.0811	0.0915	0.0465	0.251	0.374	0.145
NC1(C(=O)N[C@@H](CCO)c2ccc(Cl)cc2)CCN(c2ncnc3[nH]ccc23)CC1 [Capivasertib] + CC(=O)c1c(C)c2cnc(Nc3ccc(N4CCNCC4)cn3)nc2n(C2CCCC2)c1=O [Palbociclib] (first compound max 10 µM, 7x7, partner max 10 µM)	0.697	0.523	0.964	0.892	0.665	0.635	0.676	0.305	0.522	0.29	0.453	0.945	0.61	0.546	0.493	0.607	0.412	0.218	0.379	0.491
NC1(C(=O)N[C@@H](CCO)c2ccc(Cl)cc2)CCN(c2ncnc3[nH]ccc23)CC1 [Capivasertib] + CC(C)n1c(=O)n(C)c2cnc3cc(F)c(-c4ccc(OCCCN5CCCCC5)nc4)cc3c21 [AZD1390] (first compound max 10 µM, 7x7, partner max 0.3 µM)	0.444	0.261	0.971	0.44	0.574	0.435	0.682	0.128	0.256	0.294	0.493	0.956	0.33	0.44	0.488	0.322	0.21	0.244	0.43	0.311
NC1(C(=O)N[C@@H](CCO)c2ccc(Cl)cc2)CCN(c2ncnc3[nH]ccc23)CC1 [Capivasertib] + CCN(CCO)CCCOc1ccc2c(Nc3cc(CC(=O)Nc4cccc(F)c4)[nH]n3)ncnc2c1 [AZD2811] (first compound max 10 µM, 7x7, partner max 1 µM)	0.706	0.394	1	0.859	0.754	0.833	0.732	0.322	0.68	0.332	0.482	0.994	0.312	0.718	0.549	0.355	0.253	0.215	0.499	0.298
NC1(C(=O)N[C@@H](CCO)c2ccc(Cl)cc2)CCN(c2ncnc3[nH]ccc23)CC1 [Capivasertib] + COc1nnc2ccc(N3CCC(c4ccc(OCCN5CCN(C)C(=O)[C@H]5C)cc4)CC3)nn12 [AZD5153] (first compound max 10 µM, 7x7, partner max 1 µM)	0.944	0.723	1	0.893	0.543	0.887	0.887	0.442	0.336	0.776	0.608	0.993	0.694	0.718	0.694	0.806	0.762	0.362	0.564	0.411
NC1(C(=O)N[C@@H](CCO)c2ccc(Cl)cc2)CCN(c2ncnc3[nH]ccc23)CC1 [Capivasertib] + C[C@@H]1COCCN1C2=NC(=NC(=C2)C3(CC3)[S@](=N)(=O)C)C4=C5C=CNC5=NC=C4 [AZD6738] (first compound max 10 µM, 7x7, partner max 10 µM)	0.837	0.719	0.986	1	0.7	0.869	0.823	0.446	0.962	0.535	0.539	0.989	0.825	0.78	0.641	0.68	0.516	0.215	0.919	0.53
NC1(C(=O)N[C@@H](CCO)c2ccc(Cl)cc2)CCN(c2ncnc3[nH]ccc23)CC1 [Capivasertib] + Cn1cnc2c(F)c(Nc3ccc(Br)cc3Cl)c(C(=O)NOCCO)cc21 [Selumetinib] (first compound max 10 µM, 7x7, partner max 10 µM)	0.953	0.499	0.981	0.578	0.927	0.848	0.746	0.396	0.44	0.444	0.545	0.969	0.771	0.493	0.618	0.388	0.651	0.277	0.756	0.533
Cc1nc(Nc2ncc(C(=O)Nc3c(C)cccc3Cl)s2)cc(N2CCN(CCO)CC2)n1 [Dasatinib] + CC(=O)Nc1cccc(-n2c(=O)n(C3CC3)c(=O)c3c(Nc4ccc(I)cc4F)n(C)c(=O)c(C)c32)c1 [Trametinib] (first compound max 2 µM, 7x7, partner max 1 µM)	1	0.79	0.254	0.433	0.503	0.939	0.922	0.486	0.556	0.937	0.493	0.15	0.747	0.229	0.224	0.921	0.903	0.436	0.654	0.685
